One compound from publication PMC6576746, “Rational discovery of dual-indication multi-target PDE/Kinase inhibitor for precision anti-cancer therapy using structural systems pharmacology” (PLoS Computational Biology, 2019) can be followed below.

What all share (assay): biochemical
What all share (design): DiscoverX KinomeScan competition binding assay across human kinases; per cent of control at 10 and 100 uM

One test has as its target PIK3CA(I800L) (Homo sapiens, UniProt P42336, I800L). Conditions: competition binding, % of control; read-out: Percent Control (100 uM Levosimendan). A digest of the protocol:
(§1)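 Binding is expressed as %control, normalised between positive and negative control signals. The compound (levosimendan) was tested at 10 μM and 100 μM in the DiscoverX KinomeScan competition binding format against human kinases.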

Another test concerns the target BMX (Homo sapiens, UniProt P51813). Conditions: competition binding, % of control; read-out: Percent Control (100 uM Levosimendan). A digest of the protocol:
as §1

The target in another test is LIMK2 (Homo sapiens, UniProt P53671). Particulars: competition binding, % of control; read-out: Percent Control (100 uM Levosimendan). A digest of the protocol: as §1
Another test has as its target MET (Homo sapiens, UniProt P08581). Particulars: competition binding, % of control; read-out: Percent Control (100 uM Levosimendan). Put shortly: as §1
Another test addresses LATS1 (Homo sapiens, UniProt O95835). Conditions: competition binding, % of control; read-out: Percent Control (100 uM Levosimendan). Put shortly:
as §1

A further test deals with EPHB2 (Homo sapiens, UniProt P29323). Particulars: competition binding, % of control; read-out: Percent Control (100 uM Levosimendan). A digest of the protocol:
as §1

For test [1], the target named is T1, RSK4(Kin.Dom.2-C-terminal) (Homo sapiens, UniProt Q9UK32).
T1 construct: gene RPS6KA6; Kin.Dom.2-C-terminal
Particulars: competition binding, % of control. Put shortly: as §1

A further test concerns the target GRK7 (Homo sapiens, UniProt Q8WTQ7). Conditions: competition binding, % of control; read-out: Percent Control (100 uM Levosimendan). Put shortly:
as §1

Another test addresses HASPIN (Homo sapiens, UniProt Q8TF76). Particulars: competition binding, % of control; read-out: Percent Control (100 uM Levosimendan). A digest of the protocol: as §1
A further test addresses DDR1 (Homo sapiens, UniProt Q08345). Particulars: competition binding, % of control; read-out: Percent Control (100 uM Levosimendan). Put shortly: as §1
The next test concerns the target T2, IKK-epsilon (Homo sapiens, UniProt Q14164).
T2 construct: gene IKBKE
Conditions: competition binding, % of control; read-out: Percent Control (100 uM Levosimendan). Put shortly:
as §1

The target of another test is EIF2AK1 (Homo sapiens, UniProt Q9BQI3). Conditions: competition binding, % of control; read-out: Percent Control (100 uM Levosimendan). Put shortly:
as §1

The target of another test is T3, BIKE (Homo sapiens, UniProt Q9NSY1).
T3 construct: gene BMP2K
Conditions: competition binding, % of control. Put shortly:
as §1

The target in another test is T4, SgK110 (Homo sapiens, UniProt P0C264).
T4 construct: gene SBK3
Conditions: competition binding, % of control; read-out: Percent Control (100 uM Levosimendan). A digest of the protocol: as §1

In test [2] the target is T5, RSK1(Kin.Dom.2-C-terminal) (Homo sapiens, UniProt Q15418).
T5 construct: gene RPS6KA1; Kin.Dom.2-C-terminal
Particulars: competition binding, % of control; read-out: Percent Control (100 uM Levosimendan). A digest of the protocol:
as §1

The next test deals with LYN (Homo sapiens, UniProt P07948). Particulars: competition binding, % of control; read-out: Percent Control (100 uM Levosimendan). Put shortly:
as §1

A further test concerns the target T6, PKAC-beta (Homo sapiens, UniProt P22694).
T6 construct: gene PRKACB
Conditions: competition binding, % of control; read-out: Percent Control (100 uM Levosimendan). A digest of the protocol: as §1

In a further test the target is PAK6 (Homo sapiens, UniProt Q9NQU5). Particulars: competition binding, % of control; read-out: Percent Control (100 uM Levosimendan). Put shortly: as §1
The target in another test is FRK (Homo sapiens, UniProt P42685). Particulars: competition binding, % of control; read-out: Percent Control (100 uM Levosimendan). Put shortly:
as §1

Setting [3] is: read-out: Percent Control (10 uM Levosimendan).
[4] abbreviates: read-out: Percent Control (100 uM Levosimendan).

Molecules are shown by their SMILES.

T3 sequence (Q9NSY1 whole entry): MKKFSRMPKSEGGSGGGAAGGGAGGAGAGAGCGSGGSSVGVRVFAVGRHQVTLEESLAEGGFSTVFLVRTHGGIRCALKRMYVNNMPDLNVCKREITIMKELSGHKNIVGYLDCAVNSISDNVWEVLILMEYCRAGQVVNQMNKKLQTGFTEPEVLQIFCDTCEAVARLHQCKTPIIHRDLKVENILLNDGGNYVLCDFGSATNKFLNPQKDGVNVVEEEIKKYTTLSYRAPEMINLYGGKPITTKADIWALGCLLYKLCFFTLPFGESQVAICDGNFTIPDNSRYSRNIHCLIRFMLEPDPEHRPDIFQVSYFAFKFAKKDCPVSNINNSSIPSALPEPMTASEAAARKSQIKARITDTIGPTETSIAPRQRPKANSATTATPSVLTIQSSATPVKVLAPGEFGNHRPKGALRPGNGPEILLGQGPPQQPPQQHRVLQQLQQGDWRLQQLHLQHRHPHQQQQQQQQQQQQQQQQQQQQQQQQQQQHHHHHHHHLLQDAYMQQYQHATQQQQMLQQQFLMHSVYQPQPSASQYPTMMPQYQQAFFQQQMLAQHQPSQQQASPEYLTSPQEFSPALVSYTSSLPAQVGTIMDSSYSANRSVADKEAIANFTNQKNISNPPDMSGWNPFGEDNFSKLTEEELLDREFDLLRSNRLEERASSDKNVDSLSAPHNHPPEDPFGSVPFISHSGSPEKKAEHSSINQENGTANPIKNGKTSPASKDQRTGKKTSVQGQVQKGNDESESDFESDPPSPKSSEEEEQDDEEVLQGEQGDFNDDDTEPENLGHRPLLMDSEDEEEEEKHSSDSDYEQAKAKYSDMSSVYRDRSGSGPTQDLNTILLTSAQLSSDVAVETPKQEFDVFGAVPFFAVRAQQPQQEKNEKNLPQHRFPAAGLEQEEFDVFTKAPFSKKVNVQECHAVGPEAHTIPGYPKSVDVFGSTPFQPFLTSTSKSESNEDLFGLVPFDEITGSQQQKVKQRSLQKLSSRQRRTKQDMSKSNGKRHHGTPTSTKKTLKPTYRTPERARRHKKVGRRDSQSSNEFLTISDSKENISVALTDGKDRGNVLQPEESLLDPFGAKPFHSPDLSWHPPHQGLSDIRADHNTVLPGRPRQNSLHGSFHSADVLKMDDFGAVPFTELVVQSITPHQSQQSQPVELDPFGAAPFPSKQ
T1 sequence (Q9UK32 whole entry): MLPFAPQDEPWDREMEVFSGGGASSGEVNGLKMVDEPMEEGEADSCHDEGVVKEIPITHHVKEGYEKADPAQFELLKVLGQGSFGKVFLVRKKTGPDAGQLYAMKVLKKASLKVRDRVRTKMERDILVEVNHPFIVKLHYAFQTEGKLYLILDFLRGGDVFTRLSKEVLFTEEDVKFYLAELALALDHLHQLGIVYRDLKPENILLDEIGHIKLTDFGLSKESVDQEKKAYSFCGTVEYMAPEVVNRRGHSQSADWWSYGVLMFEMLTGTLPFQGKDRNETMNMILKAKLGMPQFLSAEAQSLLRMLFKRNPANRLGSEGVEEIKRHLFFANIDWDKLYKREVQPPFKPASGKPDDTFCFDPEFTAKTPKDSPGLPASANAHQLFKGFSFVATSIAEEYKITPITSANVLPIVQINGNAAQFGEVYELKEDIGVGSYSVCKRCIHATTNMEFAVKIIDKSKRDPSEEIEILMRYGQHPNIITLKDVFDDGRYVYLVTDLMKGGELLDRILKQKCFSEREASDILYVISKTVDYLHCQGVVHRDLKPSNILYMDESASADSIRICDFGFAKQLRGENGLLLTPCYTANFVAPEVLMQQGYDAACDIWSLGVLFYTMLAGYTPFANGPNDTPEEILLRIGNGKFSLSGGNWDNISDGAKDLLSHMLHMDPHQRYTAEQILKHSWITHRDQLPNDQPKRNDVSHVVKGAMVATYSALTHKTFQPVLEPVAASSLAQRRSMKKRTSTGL
Sequence of LYN (P07948 whole entry): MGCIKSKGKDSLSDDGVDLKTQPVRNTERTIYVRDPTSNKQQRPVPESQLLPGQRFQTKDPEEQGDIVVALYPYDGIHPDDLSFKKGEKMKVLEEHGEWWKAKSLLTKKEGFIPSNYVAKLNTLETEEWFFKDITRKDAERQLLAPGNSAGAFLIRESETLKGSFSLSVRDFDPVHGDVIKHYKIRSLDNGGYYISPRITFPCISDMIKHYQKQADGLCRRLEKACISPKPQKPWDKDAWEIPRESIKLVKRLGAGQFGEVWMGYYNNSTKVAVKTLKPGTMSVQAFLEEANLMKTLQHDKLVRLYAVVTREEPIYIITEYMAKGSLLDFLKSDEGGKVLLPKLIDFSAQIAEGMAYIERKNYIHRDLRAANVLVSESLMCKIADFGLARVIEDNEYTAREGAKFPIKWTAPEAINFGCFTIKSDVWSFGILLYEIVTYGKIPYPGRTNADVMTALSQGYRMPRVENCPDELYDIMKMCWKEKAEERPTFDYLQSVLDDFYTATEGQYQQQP
T5 sequence (Q15418 whole entry): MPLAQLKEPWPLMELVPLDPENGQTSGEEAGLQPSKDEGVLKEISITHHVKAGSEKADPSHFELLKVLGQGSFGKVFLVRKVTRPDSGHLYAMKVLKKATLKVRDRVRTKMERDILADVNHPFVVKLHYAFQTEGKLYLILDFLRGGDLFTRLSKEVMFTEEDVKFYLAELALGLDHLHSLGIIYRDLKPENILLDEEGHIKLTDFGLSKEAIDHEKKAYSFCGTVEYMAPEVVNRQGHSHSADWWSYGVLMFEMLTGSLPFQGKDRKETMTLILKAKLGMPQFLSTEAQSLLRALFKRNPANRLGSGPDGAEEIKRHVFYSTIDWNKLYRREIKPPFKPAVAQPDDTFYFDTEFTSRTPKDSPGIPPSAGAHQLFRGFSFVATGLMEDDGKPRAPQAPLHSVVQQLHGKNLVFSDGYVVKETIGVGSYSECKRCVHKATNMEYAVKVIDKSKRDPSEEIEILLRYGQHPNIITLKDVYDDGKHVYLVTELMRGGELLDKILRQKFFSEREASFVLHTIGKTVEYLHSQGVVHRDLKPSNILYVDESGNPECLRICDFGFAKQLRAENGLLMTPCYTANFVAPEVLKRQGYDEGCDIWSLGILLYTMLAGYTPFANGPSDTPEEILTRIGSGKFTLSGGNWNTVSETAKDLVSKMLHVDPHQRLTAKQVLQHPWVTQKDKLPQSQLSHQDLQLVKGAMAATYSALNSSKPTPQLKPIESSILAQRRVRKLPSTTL
Sequence of DDR1 (Q08345 whole entry): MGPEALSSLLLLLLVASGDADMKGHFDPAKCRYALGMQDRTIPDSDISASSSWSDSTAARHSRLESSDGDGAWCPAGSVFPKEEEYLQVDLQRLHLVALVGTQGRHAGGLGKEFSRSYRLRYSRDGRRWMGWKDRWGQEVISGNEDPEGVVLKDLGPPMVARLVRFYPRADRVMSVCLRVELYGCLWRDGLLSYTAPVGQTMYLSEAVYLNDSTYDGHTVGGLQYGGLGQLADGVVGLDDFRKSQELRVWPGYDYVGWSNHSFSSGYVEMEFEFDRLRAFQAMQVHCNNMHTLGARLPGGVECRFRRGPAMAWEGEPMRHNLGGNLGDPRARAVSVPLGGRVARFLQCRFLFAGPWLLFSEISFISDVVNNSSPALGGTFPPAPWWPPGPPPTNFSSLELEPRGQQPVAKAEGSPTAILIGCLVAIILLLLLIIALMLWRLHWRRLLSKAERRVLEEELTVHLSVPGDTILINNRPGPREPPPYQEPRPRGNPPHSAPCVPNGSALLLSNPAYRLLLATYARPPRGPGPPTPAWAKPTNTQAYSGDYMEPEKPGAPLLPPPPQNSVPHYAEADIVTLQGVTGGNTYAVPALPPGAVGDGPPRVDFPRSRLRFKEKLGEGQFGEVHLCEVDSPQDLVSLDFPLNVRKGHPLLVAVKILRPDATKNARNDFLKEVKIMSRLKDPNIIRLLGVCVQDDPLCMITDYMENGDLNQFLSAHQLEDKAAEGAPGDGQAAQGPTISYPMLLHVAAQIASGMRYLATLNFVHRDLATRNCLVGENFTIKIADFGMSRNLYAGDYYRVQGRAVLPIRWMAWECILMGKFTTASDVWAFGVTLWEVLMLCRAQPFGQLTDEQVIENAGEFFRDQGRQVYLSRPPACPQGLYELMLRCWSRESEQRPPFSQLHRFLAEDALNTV
Sequence of FRK (P42685 whole entry): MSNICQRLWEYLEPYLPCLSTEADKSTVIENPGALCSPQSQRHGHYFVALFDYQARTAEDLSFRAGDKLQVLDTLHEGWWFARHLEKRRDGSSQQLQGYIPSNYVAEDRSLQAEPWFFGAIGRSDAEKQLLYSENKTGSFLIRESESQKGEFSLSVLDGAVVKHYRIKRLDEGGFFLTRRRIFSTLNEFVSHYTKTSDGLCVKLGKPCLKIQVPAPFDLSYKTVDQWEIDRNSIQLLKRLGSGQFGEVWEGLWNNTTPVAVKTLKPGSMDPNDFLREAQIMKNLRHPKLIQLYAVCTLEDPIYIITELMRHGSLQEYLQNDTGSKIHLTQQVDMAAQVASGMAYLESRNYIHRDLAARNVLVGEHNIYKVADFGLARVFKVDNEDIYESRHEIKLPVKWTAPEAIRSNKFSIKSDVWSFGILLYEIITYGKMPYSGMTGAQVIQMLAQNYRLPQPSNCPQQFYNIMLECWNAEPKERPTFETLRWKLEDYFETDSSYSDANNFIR
T4 sequence (P0C264 whole entry): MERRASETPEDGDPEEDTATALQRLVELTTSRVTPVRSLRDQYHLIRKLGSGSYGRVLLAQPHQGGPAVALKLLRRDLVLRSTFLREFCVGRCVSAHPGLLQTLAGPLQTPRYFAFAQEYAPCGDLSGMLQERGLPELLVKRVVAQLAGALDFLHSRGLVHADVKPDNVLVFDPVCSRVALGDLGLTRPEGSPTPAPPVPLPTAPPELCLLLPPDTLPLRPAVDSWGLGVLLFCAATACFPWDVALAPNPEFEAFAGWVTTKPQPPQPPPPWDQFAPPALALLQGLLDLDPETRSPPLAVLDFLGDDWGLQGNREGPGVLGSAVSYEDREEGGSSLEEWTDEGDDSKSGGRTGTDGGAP

In the case of `C[C@@H]1CC(=O)NN=C1c1ccc(NN=C(C#N)C#N)cc1` [levosimendan], the remaining binding at 100 µM came out at 83% at PIK3CA(I800L); 77% on BMX; 87% at LIMK2; 55% on MET; 100% on LATS1; 77% at EPHB2. The remaining binding at 100 µM turned out to be 31% in [1] (setting [4]); 100% at GRK7; 69% on HASPIN; 84% on DDR1; 93% at IKK-epsilon; 100% at EIF2AK1. For the same compound, the remaining binding at 100 µM at BIKE (setting [4]) was found to be 2.2%; at SgK110, 100%; in [2], 100%; at LYN, 69%; at PKAC-beta it was 64%; at PAK6, 70%. Moreover, on FRK, the remaining binding at 100 µM came out at 100%. The figures for the remaining binding at 10 µM (in test [1] (setting [3]); on BIKE (setting [3])) were 82% and 47%, respectively.
